# In patent US20190358182A1, “NOVEL MECHANISM FOR DECREASING OPIOID REWARD” (THE TRUSTEES OF INDIANA UNIVERSITY, priority 2018, published 2019):
# “Also recorded” adds a separate entry of the source.
# Columns and labels:
# [1] = Rota-rod test; type: in vivo; details: 10-30 mg/kg i.p., FIG. 5B
# [2] = tested on: rats; assay: Single trial conditioned place preference (CPP); type: in vivo, rat; details: for single trial CPP to the inhibitor alone: acute treatment alone, data not shown; for single trial morphine-induced CPP on acute co-treatment: rats, FIG. 3B, 3C
# Source text: FIGS. 3A-3C present data from a conditioned place preference study where one chamber was paired with the drug treatment and the other chamber was paired with the vehicle. Animals are subsequently tested in the drug free state to determine if the drug pairing produced reward or aversion in the animals.
# [3] = Morris Water maze; type: in vivo; details: FIG. 5A
# [4] = Novel object recognition test; type: in vivo; details: data not shown
# [5] = tested on: rats; details: for conditioned place preference to morphine on coadministration: inhibitor 10 mg/kg i.p. × 4 pairings with morphine 6 mg/kg i.p., FIG. 4E, 4F
# [6] = tested on: NMDA-induced NO formation; assay: NMDA-induced NO formation / cGMP levels in primary hippocampal cultures; type: cell-based; details: for NMDA-induced NO formation: data not shown, Smith et al. (2016); for NMDA-stimulated cGMP levels: primary hippocampal cultures, published in Smith et al. (2016)
# [7] = cited from earlier work; for pain hypersensitivity / pathological pain: chronic pain models; for nociceptive responding / basal nociceptive thresholds without injury: naïve animals, absence of injury
# [8] = tested on: rats; assay: Radial arm maze task for source and spatial working memory; details: MK801 0.1 or 0.2 mg/kg i.p., IC87201 and ZL006 10 mg/kg i.p., 30 min after injection
# Description: Rats were trained in a radial arm maze task that tests both source and spatial working memory for these experiments. Data are average of three trials 30 min after drug injection (n=6/group).
# Memory impairment can confound CPP studies that depend on learning. Experiments were conducted to determine whether PSD95-nNOS inhibitors impair normal memory functions or show favorable side effect profiles compared to NMDAR antagonist MK801. We used a highly sensitive “source memory” task developed by applicants for use in rats to better mimic types of memory that are actually impaired in humans.
# [9] = target: PSD95-ERB4 (Homo sapiens, UniProt P78352); assay: Alphascreen, interaction of PSD95 with unrelated proteins; type: binding; details: FIG. 2
# [10] = target: T1, PSD95-nNOS (Homo sapiens, UniProt P29475+P78352); assay: Alphascreen in vitro assay of PSD95-nNOS binding (purified proteins); details: purified nNOS and PSD95 proteins, FIG. 2
# Source text: Mechanism: We developed an in vitro assay using Alphascreen to establish whether IC87201 and ZL006 directly disrupt interactions between purified nNOS and PSD95 proteins. […] A later group identified ZL006.
# [11] = tested on: rats; details: cited from earlier work
# [12] = tested on: DA efflux in NAc shell; assay: Fast-scan cyclic voltammetry of electrically evoked DA in NAc shell; type: in vivo, rat
# Source text: Design and Rationale: Although FSCV can record spontaneously occurring DA transients in behaving animals, the anesthetized preparation is preferred because it provides reliable and reproducible DA signals independent of behavioral activity. In fact, the fluctuating and intermittent nature of behavior-related DA signals (e.g.,) could confound efforts to establish a first-ever characterization of PSD95-nNOS disrupters on DA dynamics. […] Rats are fixed in a stereotaxic frame, and a carbon-fiber working electrode (6 μm diameter) is lowered into NAc shell. A bipolar stimulating electrode is lowered over the ipsilateral MFB to evoke endogenous DA release. An Ag/AgCl reference is placed on the contralateral cortex. […] Voltammograms are obtained every 100 ms at a scan rate of 400 v/s.
# The basic design is to collect baseline DA signals (30 min) evoked by MFB stimulation, administer (ip) test drug(s) or vehicle, and collect post-administration evoked DA signals. […] The effects of each compound (injected i.p.) will be monitored for at least 60 min and tested in separate groups of rats (n=10/group). […] To evoke DA release, we apply a biphasic current (60 Hz, 0.4 s, 300 μA) to the stimulating electrode.
# Stimulations at 60 Hz are applied every 2 min to ensure renewal of the readily releasable DA pool. Evoked signals are resolved into respective rates for release and uptake, and pre- and postdrug data are compared. Upon completion of recording, the working electrode is used for postcalibration testing to estimate the in vivo concentration of DA. The analysis used to assess changes in DA release and uptake involves a modification of Michaelis-Menten kinetics. We use mathematical modeling that describes the rate of change in evoked DA concentration as the counteracting balance of release and reuptake: d[DA]/dt=[DA]p*f−Vmax/(Km/[DA]+1), where [DA] is the extracellular DA concentration, [DA]p refers to the extracellular DA concentration evoked per stimulus pulse, Vmax represents the Michaelis-Menten term for maximal uptake rate, Km is the Michaelis-Menten term inversely proportional to transporter affinity, and f is the frequency of the stimulation train. Thus, both Km and Vmax are Michaelis-Menten rate constants that describe uptake (see FIG. 7B). [DA]p describes the rate of stimulated release. Km is held constant at a 0.2 μM, the reported value in striatum for anesthetized rodents. [DA]p and Vmax are determined by the above equation in combination with curve-fitting software that incorporates a simplex minimization algorithm.
# [13] = tested on: mice; details: wild type (WT) but not nNOS −/− mice; cited from earlier work
# [14] = target: T2, nNOS with PSD95 (Mus musculus, UniProt Q62108+Q9Z0J4); details: WT but not nNOS −/− mice; cited from earlier work
# T2 construct: host or cells: ischemic cortex of wild-type mice
# [15] = target: T1, PSD95-nNOS; details: as described for the control compound; cited from earlier work
# [16] = tested on: rats; assay: Morphine self-administration, FR1 schedule (preliminary study); type: in vivo, rat; details: morphine 0.1 mg/kg/injection
# Sequence of PSD95-ERB4 (P78352 whole entry): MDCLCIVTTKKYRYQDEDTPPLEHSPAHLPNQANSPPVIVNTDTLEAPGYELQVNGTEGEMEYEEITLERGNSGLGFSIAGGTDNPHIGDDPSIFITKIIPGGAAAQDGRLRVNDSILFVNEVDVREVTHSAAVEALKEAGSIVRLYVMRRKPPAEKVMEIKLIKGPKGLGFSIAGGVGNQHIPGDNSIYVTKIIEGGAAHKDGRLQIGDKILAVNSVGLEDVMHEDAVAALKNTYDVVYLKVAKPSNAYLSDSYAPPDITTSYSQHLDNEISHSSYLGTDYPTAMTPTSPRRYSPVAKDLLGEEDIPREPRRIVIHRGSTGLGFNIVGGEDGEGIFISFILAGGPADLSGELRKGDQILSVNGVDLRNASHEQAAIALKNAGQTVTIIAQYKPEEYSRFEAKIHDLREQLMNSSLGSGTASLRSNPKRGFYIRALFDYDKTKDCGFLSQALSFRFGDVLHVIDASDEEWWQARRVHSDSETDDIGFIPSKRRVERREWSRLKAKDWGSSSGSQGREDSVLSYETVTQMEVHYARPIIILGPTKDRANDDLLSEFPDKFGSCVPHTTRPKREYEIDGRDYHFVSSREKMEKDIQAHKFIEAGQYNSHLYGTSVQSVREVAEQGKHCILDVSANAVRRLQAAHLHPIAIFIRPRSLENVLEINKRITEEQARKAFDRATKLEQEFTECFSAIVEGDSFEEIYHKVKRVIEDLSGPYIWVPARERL
# T1 sequence (P78352 whole entry): as above
# T1 sequence (P29475 whole entry): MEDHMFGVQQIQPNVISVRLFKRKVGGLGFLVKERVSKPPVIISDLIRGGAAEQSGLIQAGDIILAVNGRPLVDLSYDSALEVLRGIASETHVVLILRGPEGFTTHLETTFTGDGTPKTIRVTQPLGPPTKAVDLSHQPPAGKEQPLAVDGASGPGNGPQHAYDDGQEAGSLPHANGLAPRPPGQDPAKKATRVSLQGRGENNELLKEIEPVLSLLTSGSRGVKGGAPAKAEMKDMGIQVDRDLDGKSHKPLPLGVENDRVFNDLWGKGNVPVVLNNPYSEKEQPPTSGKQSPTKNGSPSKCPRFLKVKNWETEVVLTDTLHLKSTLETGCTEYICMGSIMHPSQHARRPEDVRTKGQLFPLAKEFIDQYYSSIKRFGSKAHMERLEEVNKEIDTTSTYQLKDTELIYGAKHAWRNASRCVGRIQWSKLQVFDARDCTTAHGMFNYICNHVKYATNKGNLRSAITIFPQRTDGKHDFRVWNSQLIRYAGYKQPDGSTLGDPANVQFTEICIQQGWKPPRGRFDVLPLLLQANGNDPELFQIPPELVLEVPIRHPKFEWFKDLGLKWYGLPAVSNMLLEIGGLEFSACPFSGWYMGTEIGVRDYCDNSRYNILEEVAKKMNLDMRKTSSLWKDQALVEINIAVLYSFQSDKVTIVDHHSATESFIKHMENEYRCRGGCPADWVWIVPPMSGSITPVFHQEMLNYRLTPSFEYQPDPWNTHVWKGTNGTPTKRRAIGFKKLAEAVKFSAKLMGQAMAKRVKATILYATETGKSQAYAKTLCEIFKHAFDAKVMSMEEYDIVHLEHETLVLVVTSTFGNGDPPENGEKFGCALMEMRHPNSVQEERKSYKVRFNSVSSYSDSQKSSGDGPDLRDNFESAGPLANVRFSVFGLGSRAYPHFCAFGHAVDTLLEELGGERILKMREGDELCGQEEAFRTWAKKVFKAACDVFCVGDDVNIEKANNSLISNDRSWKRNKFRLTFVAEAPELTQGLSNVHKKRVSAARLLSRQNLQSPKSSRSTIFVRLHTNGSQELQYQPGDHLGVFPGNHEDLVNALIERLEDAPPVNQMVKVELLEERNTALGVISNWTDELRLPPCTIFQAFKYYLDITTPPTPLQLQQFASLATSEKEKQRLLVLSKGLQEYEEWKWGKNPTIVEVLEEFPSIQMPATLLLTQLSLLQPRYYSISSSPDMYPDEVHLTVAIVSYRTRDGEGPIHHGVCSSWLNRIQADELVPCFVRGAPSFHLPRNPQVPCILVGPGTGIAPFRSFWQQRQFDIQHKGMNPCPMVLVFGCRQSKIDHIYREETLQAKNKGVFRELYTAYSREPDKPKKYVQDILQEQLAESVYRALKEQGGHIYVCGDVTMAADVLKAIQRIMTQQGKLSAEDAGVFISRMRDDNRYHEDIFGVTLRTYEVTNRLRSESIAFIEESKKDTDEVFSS
# T2 sequence (Q9Z0J4 whole entry): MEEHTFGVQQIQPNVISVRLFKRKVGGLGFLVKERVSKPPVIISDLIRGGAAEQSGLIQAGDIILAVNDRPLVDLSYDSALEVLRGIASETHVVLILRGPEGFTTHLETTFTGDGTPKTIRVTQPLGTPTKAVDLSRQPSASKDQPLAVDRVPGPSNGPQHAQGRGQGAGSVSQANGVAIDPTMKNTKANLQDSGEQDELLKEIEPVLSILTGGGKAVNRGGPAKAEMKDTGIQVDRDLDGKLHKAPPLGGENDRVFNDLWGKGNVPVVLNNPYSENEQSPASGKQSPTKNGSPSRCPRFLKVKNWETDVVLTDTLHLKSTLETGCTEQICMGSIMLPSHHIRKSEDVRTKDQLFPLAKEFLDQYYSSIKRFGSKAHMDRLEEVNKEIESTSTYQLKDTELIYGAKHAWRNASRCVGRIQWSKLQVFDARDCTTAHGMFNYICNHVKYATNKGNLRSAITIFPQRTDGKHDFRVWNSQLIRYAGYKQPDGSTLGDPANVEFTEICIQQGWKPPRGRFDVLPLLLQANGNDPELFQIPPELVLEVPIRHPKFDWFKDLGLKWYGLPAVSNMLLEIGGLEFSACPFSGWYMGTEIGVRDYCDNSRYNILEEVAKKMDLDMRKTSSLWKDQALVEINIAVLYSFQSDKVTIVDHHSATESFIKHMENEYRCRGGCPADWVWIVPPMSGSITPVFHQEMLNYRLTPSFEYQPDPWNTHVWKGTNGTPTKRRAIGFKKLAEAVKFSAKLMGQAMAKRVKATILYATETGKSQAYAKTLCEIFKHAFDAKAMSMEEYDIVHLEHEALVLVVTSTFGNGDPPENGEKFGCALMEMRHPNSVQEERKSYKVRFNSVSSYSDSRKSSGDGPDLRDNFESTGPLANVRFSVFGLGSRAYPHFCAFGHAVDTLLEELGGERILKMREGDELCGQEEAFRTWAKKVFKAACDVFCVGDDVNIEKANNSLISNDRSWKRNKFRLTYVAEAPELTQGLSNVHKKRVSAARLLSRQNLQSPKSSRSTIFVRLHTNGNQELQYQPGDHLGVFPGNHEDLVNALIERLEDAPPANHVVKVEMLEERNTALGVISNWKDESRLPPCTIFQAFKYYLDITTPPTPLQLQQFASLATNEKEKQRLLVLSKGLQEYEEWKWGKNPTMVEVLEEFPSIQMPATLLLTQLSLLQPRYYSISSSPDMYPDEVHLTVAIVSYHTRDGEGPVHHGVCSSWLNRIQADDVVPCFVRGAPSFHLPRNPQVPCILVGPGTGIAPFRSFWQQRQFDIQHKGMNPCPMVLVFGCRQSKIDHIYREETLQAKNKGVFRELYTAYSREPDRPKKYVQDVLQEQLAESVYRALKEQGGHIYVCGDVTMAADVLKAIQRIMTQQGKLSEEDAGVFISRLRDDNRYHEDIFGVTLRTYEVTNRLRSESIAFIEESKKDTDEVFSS
# T2 sequence (Q62108 whole entry): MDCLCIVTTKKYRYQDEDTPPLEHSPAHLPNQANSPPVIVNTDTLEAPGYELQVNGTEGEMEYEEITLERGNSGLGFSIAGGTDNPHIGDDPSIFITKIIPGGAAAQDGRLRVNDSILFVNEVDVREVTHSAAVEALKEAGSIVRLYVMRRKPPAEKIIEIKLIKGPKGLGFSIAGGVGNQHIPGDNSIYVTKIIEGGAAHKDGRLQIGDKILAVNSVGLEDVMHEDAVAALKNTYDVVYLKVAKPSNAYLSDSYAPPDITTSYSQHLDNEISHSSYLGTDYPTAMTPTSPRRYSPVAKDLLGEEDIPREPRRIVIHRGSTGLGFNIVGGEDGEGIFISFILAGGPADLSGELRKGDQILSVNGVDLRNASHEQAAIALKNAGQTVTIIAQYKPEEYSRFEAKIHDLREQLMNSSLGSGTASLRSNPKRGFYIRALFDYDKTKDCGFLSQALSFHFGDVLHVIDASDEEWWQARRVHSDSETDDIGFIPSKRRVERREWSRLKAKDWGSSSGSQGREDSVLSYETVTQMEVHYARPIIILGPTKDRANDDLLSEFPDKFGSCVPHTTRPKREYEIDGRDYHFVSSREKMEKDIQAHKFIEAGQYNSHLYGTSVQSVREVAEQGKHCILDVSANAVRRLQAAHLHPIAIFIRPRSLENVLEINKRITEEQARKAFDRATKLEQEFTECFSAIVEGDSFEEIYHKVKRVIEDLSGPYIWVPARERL
smiles,measurement,setting,value
Oc1c(Cl)cc(Cl)cc1CNc1ccc2[nH]nnc2c1 [IC87201],motor performance in the rota-rod test,[1],did not impair
same,single trial CPP to the inhibitor alone,[2],failed to do so
same,single trial morphine-induced CPP on acute co-treatment,[2]; morphine 6 mg/kg i.p.,blocked
same,memory in the Morris Water maze,[3],do not impair memory
same,memory in the novel object recognition test,[4],did not impair memory
same,conditioned place preference to morphine on coadministration,[5],conditioned place preference to morphine was no longer observed
same,NMDA-induced NO formation,[6],inhibit NMDA-induced NO formation
same,NMDA-stimulated cGMP levels,[6],suppressed NMDA-stimulated cGMP levels
same,pain hypersensitivity / pathological pain,[7],suppress pain hypersensitivity; also recorded: suppresses pathological pain
same,nociceptive responding / basal nociceptive thresholds without injury,[7],without altering nociceptive responding; also recorded: without altering basal nociceptive thresholds
same,source memory,[8],failed to impair spatial memory or source memory
same,spatial working memory,[8],failed to impair spatial memory or source memory
same,disruption of unrelated PSD95-ERB4 interactions,[9],not unrelated PSD95-ERB4 interactions; also recorded: without disrupting interaction of PSD95 with unrelated proteins
same,disruption of PSD95-nNOS interaction / binding,[10],disrupt PSD95-nNOS; also recorded: inhibited PSD95-nNOS binding
COC(=O)[C@@H](N)CCCNC(=N)N[N+](=O)[O-] [L-NAME],L-arginine enhancement of acquisition of CPP to morphine,[11]; NOS inhibitor,this enhancement was blocked
N=C(N)NCCC[C@H](N)C(=O)O [L-arginine],acquisition of CPP to morphine,[11]; NO donor in the central amygdala,increased acquisition of CPP to morphine
"C[C@]12N[C@H](Cc3ccccc31)c1ccccc12 [MK801, reference compound]",NMDA-stimulated cGMP levels,[6],suppressed NMDA-stimulated cGMP levels
same,source memory,[8],eliminated (i.e. did not differ from chance)
same,spatial working memory,[8],unaffected
same,morphine-induced CPP,"[11]; rats, MK801 0.1 mg/kg i.p., doses that do not alter chamber preference",blocked
O=C(O)c1ccc(NCc2cc(Cl)cc(Cl)c2O)cc1O [ZL006],motor performance in the rota-rod test,[1],did not impair
same,single trial CPP to the inhibitor alone,[2],failed to do so
same,single trial morphine-induced CPP on acute co-treatment,[2]; morphine 6 mg/kg i.p.,blocked
same,morphine-induced dopamine efflux on co-administration,"[12]; ZL006 10 mg/kg i.p. with morphine 6 mg/kg i.p., NAc shell, FIG. 8C",blocked the morphine-induced increase in evoked DA in NAc shell; also recorded: suppresses morphine-induced dopamine efflux in nucleus accumbens shell
same,amount of DA released per stimulus pulse,"[12]; ZL006 10 mg/kg i.p., FIG. 7C",does not affect the amount of DA released per stimulus pulse
same,amount of DA uptake per stimulus pulse,"[12]; ZL006 10 mg/kg i.p., FIG. 7D",does not affect the amount of DA uptake per stimulus pulse
same,evoked DA response before and 30 min after drug,"[12]; ZL006 10 mg/kg i.p., anesthetized rat, FIG. 8B, pilot data, 10 mg/kg",clear decrease in DA signal within 30 min; also recorded: decrease in DA evoked response
same,"evoked dopamine (DA) efflux, drug alone","[12]; medial forebrain bundle stimulation, morphine 6 mg/kg i.p., ZL006 10 mg/kg i.p., FIG. 7A, 7B",does not increase dopamine (DA) efflux
same,memory in the Morris Water maze,[3],do not impair memory
same,ischemia induced damage,[13],inhibits ischemia induced damage
same,memory in the novel object recognition test,[4],did not impair memory
same,conditioned place preference to morphine on coadministration,[5],conditioned place preference to morphine was no longer observed
same,association of nNOS with PSD95 in ischemic cortices,[14],inhibits the association of nNOS with PSD95 in ischemic cortices
same,NMDA-induced NO formation,[6],inhibit NMDA-induced NO formation
same,NMDA-stimulated cGMP levels,[6],suppressed NMDA-stimulated cGMP levels
same,pain hypersensitivity / pathological pain,[7],suppress pain hypersensitivity
same,nociceptive responding / basal nociceptive thresholds without injury,[7],without altering nociceptive responding
same,source memory,[8],failed to impair spatial memory or source memory
same,spatial working memory,[8],failed to impair spatial memory or source memory
same,disruption of unrelated PSD95-ERB4 interactions,[9],not unrelated PSD95-ERB4 interactions; also recorded: without disrupting interaction of PSD95 with unrelated proteins
same,disruption of PSD95-nNOS interaction / binding,[10],disrupt PSD95-nNOS; also recorded: inhibited PSD95-nNOS binding
"O=C(O)c1cc(NCc2cc(Cl)cc(Cl)c2O)ccc1O [ZL007, reference compound]",disruption of PSD95-nNOS interactions by the inactive analog,[15],does not disrupt PSD95-nNOS interactions
"CN1CC[C@]23c4c5ccc(O)c4O[C@H]2[C@@H](O)C=C[C@H]3[C@H]1C5 [morphine, reference compound]",active versus inactive lever presses in self-administration,"[16]; FR1, naïve, sham and neuropathic rats",Active lever presses were greater than inactive presses in all groups
same,mechanical thresholds,"[16]; naïve rats, FIG. 6A",did not alter mechanical thresholds
same,single trial CPP to the drug alone (morphine),"[2]; naïve rats, morphine 6 mg/kg i.p., FIG. 3A",robust single trial CPP
same,"conditioned place preference to morphine, repeated pairings","[5]; morphine 6 or 10 mg/kg i.p. × 4 pairings, FIG. 4C, 4D",produced robust conditioned place preference
